For orientation: IC50 means the concentration that inhibits the measured activity by half.

The first assay deals with truncated form of human NaV 1.8 with full channel activity (Homo sapiens, UniProt Q9Y5Y9). Nature of the assay: E-VIPR Assay Method A for detecting and measuring Nav inhibition (HEK cells, membrane potential FRET dyes, electrical stimulation). In kind it is cell-based. The settings on record: HEK cells expressing human NaV 1.8, HS (human serum) in compound loading buffer, 11 point dose response, top dose 3 μM, Table 20, read-out: Nav 1.8 MedChem Optical Assay EVIPR Assay Method A HS IC50. Put shortly: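 HEK cells expressing truncated human NaV1.8, loaded with CC2-DMPE/DiSBAC6(3) FRET dyes, incubated 30 min at room temp with compound (0.625% DMSO), then electrically stimulated (1.25 A biphasic, 10 Hz, 10 s). Inhibition from 460/580 nm ratio Rf/Ri, normalised to positive and DMSO controls.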
Sequence of truncated form of human NaV 1.8 with full channel activity (Q9Y5Y9 126-1722 limits assumed): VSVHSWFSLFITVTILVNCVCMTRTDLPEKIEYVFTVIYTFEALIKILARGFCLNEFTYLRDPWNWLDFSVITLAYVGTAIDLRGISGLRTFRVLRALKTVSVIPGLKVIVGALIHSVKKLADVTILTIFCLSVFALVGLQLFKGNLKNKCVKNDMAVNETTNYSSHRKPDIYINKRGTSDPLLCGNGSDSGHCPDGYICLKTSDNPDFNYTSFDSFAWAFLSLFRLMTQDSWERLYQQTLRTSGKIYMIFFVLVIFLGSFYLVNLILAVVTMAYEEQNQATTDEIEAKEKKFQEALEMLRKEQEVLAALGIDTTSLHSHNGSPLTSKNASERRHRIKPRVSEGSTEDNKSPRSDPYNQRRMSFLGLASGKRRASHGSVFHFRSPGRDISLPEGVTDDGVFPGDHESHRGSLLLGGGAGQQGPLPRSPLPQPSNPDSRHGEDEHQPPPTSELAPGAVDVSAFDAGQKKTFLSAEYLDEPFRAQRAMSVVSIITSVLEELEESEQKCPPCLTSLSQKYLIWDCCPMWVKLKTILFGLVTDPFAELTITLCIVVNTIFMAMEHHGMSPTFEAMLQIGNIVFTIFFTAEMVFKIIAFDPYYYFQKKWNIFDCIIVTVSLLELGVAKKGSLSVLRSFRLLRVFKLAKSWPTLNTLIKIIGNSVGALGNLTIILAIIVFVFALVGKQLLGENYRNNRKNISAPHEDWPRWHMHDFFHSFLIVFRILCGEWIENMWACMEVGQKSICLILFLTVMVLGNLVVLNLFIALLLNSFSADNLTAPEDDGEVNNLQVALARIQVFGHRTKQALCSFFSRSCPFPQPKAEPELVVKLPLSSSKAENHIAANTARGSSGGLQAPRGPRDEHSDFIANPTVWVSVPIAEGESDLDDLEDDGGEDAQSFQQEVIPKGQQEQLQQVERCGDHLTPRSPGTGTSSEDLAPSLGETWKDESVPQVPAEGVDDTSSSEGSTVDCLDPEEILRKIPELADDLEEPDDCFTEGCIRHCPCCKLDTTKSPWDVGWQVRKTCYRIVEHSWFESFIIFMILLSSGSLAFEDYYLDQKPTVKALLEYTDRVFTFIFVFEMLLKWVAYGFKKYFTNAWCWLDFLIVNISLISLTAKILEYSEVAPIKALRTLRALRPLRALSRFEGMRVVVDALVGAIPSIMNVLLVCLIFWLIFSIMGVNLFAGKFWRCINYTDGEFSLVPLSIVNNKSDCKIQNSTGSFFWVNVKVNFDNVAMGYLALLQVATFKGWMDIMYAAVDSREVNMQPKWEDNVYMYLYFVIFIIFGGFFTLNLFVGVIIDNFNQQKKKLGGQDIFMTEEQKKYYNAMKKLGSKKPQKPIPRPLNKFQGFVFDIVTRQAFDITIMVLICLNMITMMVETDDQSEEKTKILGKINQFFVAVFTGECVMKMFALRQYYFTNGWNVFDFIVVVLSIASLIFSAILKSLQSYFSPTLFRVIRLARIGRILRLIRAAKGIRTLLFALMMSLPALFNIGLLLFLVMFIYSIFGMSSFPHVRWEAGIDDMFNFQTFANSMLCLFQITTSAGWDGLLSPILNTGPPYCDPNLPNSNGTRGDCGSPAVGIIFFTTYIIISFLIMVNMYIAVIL
Turning to `[2H]C([2H])([2H])Oc1cc(OC(F)(F)F)ccc1Oc1cc(C(F)(F)F)cc(F)c1C(=O)Nc1ccnc(C(N)=O)c1` [Compound 17, 4-[[2-fluoro-6-[2-(trideuteriomethoxy)-4-(trifluoromethoxy)phenoxy]-4-(trifluoromethyl)benzoyl]amino]pyridine-2-carboxamide], the half-inhibitory concentration (IC50) was found to be 8 nM.
As to `Cc1cc(OC(F)(F)F)ccc1Oc1ccc(C(F)(F)F)c(F)c1C(=O)Nc1ccc(F)c(C(N)=O)c1` [Compound 10, N-(3-carbamoyl-4-fluoro-phenyl)-2-fluoro-6-[2-methyl-4-(trifluoromethoxy)phenoxy]-3-(trifluoromethyl)benzamide], the IC50 stood at 3 nM.
The same measure, in the same setting: in the case of `[2H]C([2H])([2H])Oc1cc(OC(F)(F)F)ccc1Oc1ccc(C(F)(F)F)c(F)c1C(=O)Nc1ccc(F)c(C(N)=O)c1` [Compound 1, N-(3-carbamoyl-4-fluoro-phenyl)-2-fluoro-6-[2-(trideuteriomethoxy)-4-(trifluoromethoxy)phenoxy]-3-(trifluoromethyl)benzamide] it was 0.7 nM; in that of `COc1cc(OC(F)(F)F)ccc1Oc1ccc(C(F)F)c(F)c1C(=O)Nc1ccc(F)c(C(N)=O)c1` [Compound 7, N-(3-carbamoyl-4-fluoro-phenyl)-3-(difluoromethyl)-2-fluoro-6-[2-methoxy-4-(trifluoromethoxy)phenoxy]benzamide], 3 nM.
The same measure, in the same setting: the result for `COc1cc(OC(F)(F)F)ccc1Oc1cc(F)c(F)c(F)c1C(=O)Nc1ccc(F)c(C(N)=O)c1` [Compound 11, N-(3-carbamoyl-4-fluoro-phenyl)-2,3,4-trifluoro-6-[2-methoxy-4-(trifluoromethoxy)phenoxy]benzamide] reads 4 nM.
On the same count and under the same terms, the result for `NC(=O)c1cc(NC(=O)c2c(Oc3ccc(F)cc3)ccc(C(F)(F)F)c2F)ccc1F` [Compound 25, N-(3-carbamoyl-4-fluoro-phenyl)-2-fluoro-6-(4-fluorophenoxy)-3-(trifluoromethyl)benzamide] reads 18 nM.

The assay is the same for the next values; noted with them: HEK cells expressing human NaV 1.8, HS (human serum) in compound loading buffer, 11 point dose response, top dose 3 μM, Table 20A, read-out: Nav 1.8 MedChem Optical Assay EVIPR Assay Method A HS IC50.
On to `COc1cc(OC(F)(F)F)ccc1Oc1cc(C(C)(C)F)ncc1C(=O)Nc1ccnc(C(N)=O)c1` [Compound 104, N-(2-Carbamoyl-4-pyridyl)-6-(1-fluoro-1-methyl-ethyl)-4-[2-methoxy-4-(trifluoromethoxy)phenoxy]pyridine-3-carboxamide], for which the IC50 is 64 nM.
On to `[2H]C([2H])([2H])Oc1cc(OC(F)(F)F)ccc1Oc1ccc(OC(F)(F)F)cc1C(=O)Nc1ccnc(C(N)=O)c1` [Compound 158, 4-[[2-[2-(Trideuteriomethoxy)-4-(trifluoromethoxy)phenoxy]-5-(trifluoromethoxy)benzoyl]amino]pyridine-2-carboxamide], for which the half-inhibitory concentration (IC50) came to 150 nM.
Still for that read-out and setting: the result for `COc1cc(OC(F)(F)F)ccc1Oc1cc(C2CC2)c(F)cc1C(=O)Nc1ccnc(C(N)=O)c1` [Compound 116, 4-[[4-Cyclopropyl-5-fluoro-2-[2-methoxy-4-(trifluoromethoxy)phenoxy]benzoyl]amino]pyridine-2-carboxamide] reads 145 nM; that for `NC(=O)c1cc(NC(=O)c2c(Cl)cc(Cl)cc2Oc2ccc(OC(F)(F)F)cc2)ccn1` [Compound 180, 4-[[2,4-Dichloro-6-[4-(trifluoromethoxy)phenoxy]benzoyl]amino]pyridine-2-carboxamide], 75 nM.
On the same count and under the same terms, in the case of `NC(=O)c1cc(NC(=O)c2c(Oc3ccc(OC(F)(F)F)cc3)ccc(C3CC3)c2F)ccc1F` [Compound 71, N-(3-Carbamoyl-4-fluoro-phenyl)-3-cyclopropyl-2-fluoro-6-[4-(trifluoromethoxy)phenoxy]benzamide] it was 40 nM; in that of `NC(=O)c1cc(NC(=O)c2c(Oc3ccc(OC(F)(F)F)c(Cl)c3)ccc(C(F)(F)F)c2F)ccn1` [Compound 53], 17 nM.
The same measure, in the same setting: in the case of `COc1cc(OC(F)(F)F)ccc1Oc1cc(C(C)(C)F)ncc1C(=O)Nc1ccc(F)c(C(N)=O)c1` [Compound 103, N-(3-Carbamoyl-4-fluoro-phenyl)-6-(1-fluoro-1-methyl-ethyl)-4-[2-methoxy-4-(trifluoromethoxy)phenoxy]pyridine-3-carboxamide] it was 34 nM; in that of `N#Cc1cc(F)ccc1Oc1ccc(C(F)(F)F)c(F)c1C(=O)Nc1ccc(F)c(C(N)=O)c1` [Compound 295, N-(3-carbamoyl-4-fluoro-phenyl)-6-(2-cyano-4-fluoro-phenoxy)-2-fluoro-3-(trifluoromethyl)benzamide], 200 nM; in that of `COc1cc(OC(F)(F)F)ccc1Oc1cc(C2CC2)ncc1C(=O)Nc1ccnc(C(N)=O)c1` [Compound 78], 97 nM.
Take `COc1cc(OC(F)(F)F)ccc1Oc1ccc(C(F)(F)F)c(OC)c1C(=O)Nc1ccc(C(N)=O)nc1` [Compound 202, 5-[[2-Methoxy-6-[2-methoxy-4-(trifluoromethoxy)phenoxy]-3-(trifluoromethyl)benzoyl]amino]pyridine-2-carboxamide]: the 50% inhibitory concentration (IC50) worked out at 40 nM.
On the same count and under the same terms, the result for `[2H]C([2H])([2H])Oc1cc(OC(F)(F)F)ccc1Oc1ccc(C(F)(F)F)c(F)c1C(=O)Nc1cnc(C(N)=O)cc1C` [Compound 161, 5-[[2-fluoro-6-[2-(trideuteriomethoxy)-4-(trifluoromethoxy)phenoxy]-3-(trifluoromethyl)benzoyl]amino]-4-methyl-pyridine-2-carboxamide] reads 150 nM; that for `NC(=O)c1cc(NC(=O)c2c(Oc3ccc(OC(F)(F)F)cc3)ccc(F)c2F)ccn1` [Compound 64, 4-[[2,3-Difluoro-6-[4-(trifluoromethoxy)phenoxy]benzoyl]amino]pyridine-2-carboxamide], 185 nM; that for `COc1cc(OC(F)(F)F)ccc1Oc1cncc(OC)c1C(=O)Nc1ccc(F)c(C(N)=O)c1` [Compound 138, N-(3-Carbamoyl-4-fluoro-phenyl)-3-methoxy-5-[2-methoxy-4-(trifluoromethoxy)phenoxy]pyridine-4-carboxamide], 1400 nM.
Same read-out and setting: in the case of `NC(=O)c1ccc(NC(=O)c2c(Oc3ccc(OC(F)(F)F)cc3)ccc(C(F)(F)F)c2F)cc1F` [Compound 65, N-(4-Carbamoyl-3-fluoro-phenyl)-2-fluoro-6-[4-(trifluoromethoxy)phenoxy]-3-(trifluoromethyl)benzamide] it was 79 nM; in that of `COc1cc(OC(F)(F)F)ccc1Oc1cncc(F)c1C(=O)Nc1cc(C(N)=O)ncc1C` [Compound 151, 4-[[3-Fluoro-5-[2-methoxy-4-(trifluoromethoxy)phenoxy]pyridine-4-carbonyl]amino]-5-methyl-pyridine-2-carboxamide], 520 nM; in that of `COc1cc(F)ccc1-c1cnc(C(F)(F)F)cc1C(=O)Nc1ccc(F)c(C(N)=O)c1` [Compound 200, N-(3-carbamoyl-4-fluoro-phenyl)-5-(4-fluoro-2-methoxy-phenyl)-2-(trifluoromethyl)pyridine-4-carboxamide], above 3100 nM.
Same read-out and setting: in the case of `COc1cc(OC(F)(F)F)ccc1Oc1ccc(C(F)(F)F)c(F)c1C(=O)Nc1cc(C)nc(C(N)=O)c1` [Compound 86, 4-[[2-fluoro-6-[2-methoxy-4-(trifluoromethoxy)phenoxy]-3-(trifluoromethyl)benzoyl]amino]-6-methyl-pyridine-2-carboxamide] it was 32 nM; in that of `COc1ccc(Oc2ccc(C(F)(F)F)c(F)c2C(=O)Nc2ccc(F)c(C(N)=O)c2)cn1` [Compound 56, N-(3-carbamoyl-4-fluoro-phenyl)-2-fluoro-6-[(6-methoxy-3-pyridyl)oxy]-3-(trifluoromethyl)benzamide], 260 nM.
Consider `NC(=O)c1cc(NC(=O)c2c(Oc3ccc(F)cc3OC(F)F)ccc(C(F)(F)F)c2F)ccn1` [Compound 208, 4-[[6-[2-(Difluoromethoxy)-4-fluoro-phenoxy]-2-fluoro-3-(trifluoromethyl)benzoyl]amino]pyridine-2-carboxamide], for which the IC50 turned out to be 13 nM.
As to `Cc1cnc(C(N)=O)cc1NC(=O)c1c(Oc2ccc(OC(F)(F)F)c(F)c2)ccc(Cl)c1F` [Compound 245, 4-[[3-chloro-2-fluoro-6-[3-fluoro-4-(trifluoromethoxy)phenoxy]benzoyl]amino]-5-methyl-pyridine-2-carboxamide], the IC50 amounted to 36 nM.
Still for that read-out and setting: the result for `COc1cc(OC(F)(F)F)ccc1Oc1ccc(Cl)cc1C(=O)Nc1cc(C(N)=O)ncc1C` [Compound 150, 4-[[5-Chloro-2-[2-methoxy-4-(trifluoromethoxy)phenoxy]benzoyl]amino]-5-methyl-pyridine-2-carboxamide] reads 290 nM; that for `Cc1cc(F)c(C(N)=O)cc1NC(=O)c1c(Oc2ccc(OC(F)(F)F)cc2)ccc(C(F)(F)F)c1F` [Compound 124, N-(5-Carbamoyl-4-fluoro-2-methyl-phenyl)-2-fluoro-6-[4-(trifluoromethoxy)phenoxy]-3-(trifluoromethyl)benzamide], 220 nM; that for `COc1cc(OC(F)(F)F)ccc1Oc1cnc(C(F)(F)F)c(F)c1C(=O)Nc1cc(C(N)=O)ncc1C` [Compound 143, N-(2-Carbamoyl-5-methyl-4-pyridyl)-3-fluoro-5-[2-methoxy-4-(trifluoromethoxy)phenoxy]-2-(trifluoromethyl)pyridine-4-carboxamide], 10 nM.
On the same count and under the same terms, in the case of `COc1cc(F)ccc1Oc1cc(Cl)cc(Cl)c1C(=O)Nc1ccnc(C(N)=O)c1` [Compound 178, 4-[[2,4-Dichloro-6-(4-fluoro-2-methoxy-phenoxy)benzoyl]amino]pyridine-2-carboxamide] it was 76 nM; in that of `COc1cc(OC(F)(F)F)ccc1Oc1cc(C(C)(C)C)ncc1C(=O)Nc1ccc(F)c(C(N)=O)c1` [Compound 94, 6-tert-Butyl-N-(3-carbamoyl-4-fluoro-phenyl)-4-[2-methoxy-4-(trifluoromethoxy)phenoxy]pyridine-3-carboxamide], 18 nM.

For the origin of these results see patent US12281057B2 (VERTEX PHARMACEUTICALS INCORPORATED, priority 2017, dated 2025).
